The values below come from the CheMixHub ionic liquid set.

In general, viscosity refers to the resistance of a fluid to flow. Lower therefore signals easy flow.

The nature of the data set: xn = mol fraction of the nth substance listed. The settings on record: 101 kPa; for electrical conductivity: frequency 0 MHz.

± gives the uncertainty stated by the source.

`C1CCC2=NCCCN2CC1` + O=S(=O)([N-]S(=O)(=O)C(F)(F)F)C(F)(F)F.[Li+]: the electrical conductivity is, setting by setting: (328.15 K, x1 = 0.8) 0.00259 ± 3e-05 S/m; (338.15 K, x1 = 0.8) 0.00474 ± 6e-05 S/m; (348.15 K, x1 = 0.8) 0.0114 ± 0.00015 S/m. The viscosity stood at 3336 ± 470 mPa·s (328.15 K, x1 = 0.8) and 358 ± 24 mPa·s (348.15 K, x1 = 0.8).
For the molecule `CCCCCCCCn1cc[n+](C)c1.F[B-](F)(F)F` + CCCCOC(C)=O, the viscosity amounted to 187 ± 11 mPa·s (298.15 K, x2 = 0.114); 34.1 ± 0.44 mPa·s (298.15 K, x2 = 0.4512); 1.76 ± 0.03 mPa·s (298.15 K, x2 = 0.9065).
Take `CCCC[n+]1ccn(C)c1.N[C@@H](CCC(=O)O)C(=O)[O-]` + CO: the viscosity (298.15 K, x2 = 0.2002) is 46.1 ± 4.3 mPa·s; the viscosity (298.15 K, x2 = 0.2995) was determined as 34.4 ± 3.2 mPa·s; the viscosity (298.15 K, x2 = 0.7) was 4.97 ± 0.46 mPa·s; the viscosity (298.15 K, x2 = 0.9) is on record as 1.24 ± 0.12 mPa·s; the viscosity (303.15 K, x2 = 0.6002) worked out at 9.62 ± 0.9 mPa·s; the viscosity (308.15 K, x2 = 0.6002) turned out to be 8.63 ± 0.8 mPa·s. The viscosity reads like this: (308.15 K, x2 = 0.8001) 2.83 ± 0.26 mPa·s; (313.15 K, x2 = 0.2002) 25.6 ± 2.4 mPa·s; (313.15 K, x2 = 0.7) 4.55 ± 0.42 mPa·s.
`CCCC[n+]1ccn(C)c1.COP(=O)([O-])OC` + CC(=O)O.CC(=O)[O-].CC[NH+](CC)CCO: the viscosity is listed as 2142 ± 110 mPa·s (283.15 K, x2 = 0); 609 ± 21 mPa·s (298.15 K, x2 = 0); 36.02 ± 0.46 mPa·s (353.15 K, x2 = 0); 30.38 ± 0.38 mPa·s (358.15 K, x2 = 0).
